What was measured:
KuFL = target: T1, KuFL (Homo sapiens, UniProt P12956+P13010); test: nanoDSF thermal stability of KuFL; settings: in the absence of DNA, increasing IP6 concentrations
T1 construct: The full-length human Ku heterodimer subunits (Ku70 1–609, Ku80 1–732); 10x His-tag with TEV site (N); made in house; host or cells: Sf21 insect cells (baculovirus, MultiBac)
Method: nano-Differential Scanning Fluorimetry. nanoDSF measurements were performed on a Tycho NT.6 device (NanoTemper) with KuFL dialyzed against buffer 20 mM Tris HCl pH 8, 150 mM NaCl, 5 mM β-mercaptoethanol. We used 9 µL of KuFL at 5 µM in absence or presence of DNA at 7.5 µM to obtain a (1:1.5) molar ratio. Measurements were performed in presence of IP6 concentrations ranging from 0 to 10 µM. Stocks solutions of IP6 and analogues are prepared so that 1 µL of IPs solutions are used in the 10 µL capillary for all concentrations tested. Each point corresponds to an average of three measurements. The temperature of transition that corresponds to the change of environment of the tryptophan is deduced from the first inflexion point of the 330 nm/350 nm ratio versus temperature.

KuFL-DNA interaction = target: T2, KuFL-DNA interaction (Homo sapiens, UniProt P12956+P13010); test: switchSENSE kinetics of KuFL interaction with 48bp DNA; assay type: binding; settings: IP6 3 μM
T2 construct: The full-length human Ku heterodimer subunits (Ku70 1–609, Ku80 1–732); 10x His-tag with TEV site (N); made in house; host or cells: Sf21 insect cells (baculovirus, MultiBac)
T2 sequence (P12956 whole entry): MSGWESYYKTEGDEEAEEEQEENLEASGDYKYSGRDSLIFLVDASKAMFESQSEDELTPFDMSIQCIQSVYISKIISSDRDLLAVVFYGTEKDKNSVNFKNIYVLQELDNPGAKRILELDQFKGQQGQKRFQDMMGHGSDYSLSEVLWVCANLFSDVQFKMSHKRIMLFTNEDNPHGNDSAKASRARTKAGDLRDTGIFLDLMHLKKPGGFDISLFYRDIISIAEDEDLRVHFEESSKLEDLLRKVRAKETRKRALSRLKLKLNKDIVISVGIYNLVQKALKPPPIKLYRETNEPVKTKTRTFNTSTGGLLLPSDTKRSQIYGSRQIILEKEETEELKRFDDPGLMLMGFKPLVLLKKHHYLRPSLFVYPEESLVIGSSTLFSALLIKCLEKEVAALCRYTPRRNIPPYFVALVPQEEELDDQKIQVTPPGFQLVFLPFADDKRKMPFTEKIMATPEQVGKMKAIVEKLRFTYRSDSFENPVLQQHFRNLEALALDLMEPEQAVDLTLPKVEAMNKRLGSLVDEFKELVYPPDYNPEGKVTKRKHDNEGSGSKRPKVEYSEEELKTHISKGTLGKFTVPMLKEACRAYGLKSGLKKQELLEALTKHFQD
T2 sequence (P13010 whole entry): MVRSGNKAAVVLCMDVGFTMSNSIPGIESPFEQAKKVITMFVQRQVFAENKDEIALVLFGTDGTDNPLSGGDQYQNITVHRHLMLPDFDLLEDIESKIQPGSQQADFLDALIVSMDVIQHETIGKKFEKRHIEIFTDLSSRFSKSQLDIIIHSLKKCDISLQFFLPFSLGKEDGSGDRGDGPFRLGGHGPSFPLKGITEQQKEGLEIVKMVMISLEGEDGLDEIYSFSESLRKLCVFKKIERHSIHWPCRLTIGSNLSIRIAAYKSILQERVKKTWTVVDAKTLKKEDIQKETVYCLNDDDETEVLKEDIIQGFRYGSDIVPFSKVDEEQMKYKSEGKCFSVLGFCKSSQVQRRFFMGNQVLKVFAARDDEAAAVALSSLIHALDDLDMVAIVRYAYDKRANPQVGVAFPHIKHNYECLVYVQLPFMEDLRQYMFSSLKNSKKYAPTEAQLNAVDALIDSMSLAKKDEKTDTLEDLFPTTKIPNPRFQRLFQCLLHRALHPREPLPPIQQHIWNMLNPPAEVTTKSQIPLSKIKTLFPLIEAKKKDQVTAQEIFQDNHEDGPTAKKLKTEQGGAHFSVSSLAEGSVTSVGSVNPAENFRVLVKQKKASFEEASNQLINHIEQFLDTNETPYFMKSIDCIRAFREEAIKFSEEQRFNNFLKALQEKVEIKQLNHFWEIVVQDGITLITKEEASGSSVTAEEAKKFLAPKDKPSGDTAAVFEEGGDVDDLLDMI
Method: switchSENSE: A DRX 2400 instrument and a multi-purpose 48bp chip were used for switchSENSE measurements (both Dynamic Biosensors GmbH; Planegg, Germany). The sample and running buffer was in 10 mM Tris HCl pH 7.4, 140 mM NaCl, 50 µM EDTA, 0.05 % Tween-20, 50µM EDTA. Kinetics experiments of Ku interaction with DNA in presence or absence of IP6 were performed on a DRX2 instrument. Complementary DNA to the strand immobilized on the chip was first hybridized on the measurement electrodes. The association and dissociation between Ku and DNA, with or without IP6 (3 µM) at Ku concentration (0-15-30-60-120-240 nM were measured in a flow rate of 200 µL/min. Kinetics experiments of Ku interaction with DNA and XLF with or without DNA were performed on a Helix instrument. The sample and running buffer was in 10 mM Tris HCl pH 7.4, 140 mM NaCl, 50 µM EDTA, 0.05 % Tween-20 with or without IP6 (20 µM). The flow rate of all conditions are at 500 µL/min.

c-NHEJ = settings: cited from earlier work

T1 sequence (P12956 whole entry): as the sequence (P12956 whole entry) above
T1 sequence (P13010 whole entry): as the sequence (P13010 whole entry) above

O=P(O)(O)O[C@H]1[C@H](OP(=O)(O)O)[C@@H](OP(=O)(O)O)[C@H](OP(=O)(O)O)[C@@H](OP(=O)(O)O)[C@H]1OP(=O)(O)O [IP6, inositol hexaphosphate]
effect on Ku thermal stability (KuFL): no significant effect
effect on Ku-DNA interaction (KuFL-DNA interaction): slight stimulation of the interaction
effect on end-joining of a linear plasmid substrate and DNA-PK dependent phosphorylation of XLF (c-NHEJ; human cell extracts): stimulated
effect on c-NHEJ (c-NHEJ; human whole-cell extracts): stimulate c-NHEJ

— publication PMC10682503, “Structural and functional basis of inositol hexaphosphate stimulation of NHEJ through stabilization of Ku-XLF interaction” (Nucleic Acids Research, 2023)
